Measured values reported in patent US20080096909A1, “APOMORPHINE INHIBITORS OF AMYLOID-BETA (ABETA) FIBRIL FORMATION AND THEIR USE IN AMYLOIDOSIS BASED DISEASE” (priority 2001, published 2008).
Structures can show the parent of a compound that is named as a salt.

What was measured:
Aβ 1-40 [1] = biological target: T1, Aβ 1-40 (Homo sapiens, UniProt P05067); test: Aβ 1-40 fibril formation inhibition judged by ThT, sedimentation velocity and electron microscopy; details: Aβ 1-40 100 μM; for Effect on Aβ 1-40 fibril formation (ThT, sedimentation velocity, EM): pH 7.4, 37° C., 3 days
T1 sequence (P05067 672-711): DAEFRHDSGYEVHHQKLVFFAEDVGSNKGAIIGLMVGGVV

Aβ 1-40 [2] = biological target: T1, Aβ 1-40; test: Sedimentation velocity of Aβ quaternary structures in the presence of inhibitors; format: biochemical; set-up: Amyloid-β (Aβ 1-40) was purchased from California Peptides (Lot # SF104); purchased California Peptides Lot # SF104; details: for Amount of nonfibrillar assemblies (protofibrils) formed by Aβ alone relative to that obtained in the presence of compound: 20 hour incubation; for Sedimentation velocities, 20 h (average sedimentation coefficient): Aβ 1-40 100 μM + compound 100 μM, 37° C.
Protocol: Probing the Mechanism of Amyloid Fibril Formation Inhibition using Sedimentation Velocity Experiments. To probe the mechanism by which apomorphine and its structural analogues inhibit Aβ fibril formation, sedimentation velocity was used to determine the distribution and molecular size of quaternary structures of Aβ in the presence and absence of inhibitors. Aβ samples (100 μM) in a pH 7.4 buffer (50 mM Tris-HCl, 150 mM NaCl) were incubated at 37° C. for 1-10 days in the presence and absence of inhibitors, then transferred to 25° C. for 1-3 hours before the sedimentation experiments were carried out at 20° C. The sedimentation properties of Aβ 1-40 in the absence and presence of inhibitors were obtained from data collected on a temperature controlled Beckman XL-1 using 400-420 μL of peptide solutions and data were recorded at rotor speeds of 3,000-30,000 rpm in continuous mode with a step size of 0.005 cm. The sedimentation velocity absorbance profiles were then analyzed using the time derivative (dc/dt) analysis program, which was provided by J. Philo, to obtain the sedimentation coefficient distribution g(*s) for all the quaternary structures in solution as described previously (37, 38).
Fitting of the g(*s) profiles allows for the determination of the sedimentation coefficient (peak position, with a unit of Svedberg, 1 S=10^−13 s) and the diffusion coefficient (from the peak width, with a unit of Fick, 1 F=[…]). This method has the advantage of allowing for the calculation of the molecular weight of the sedimenting species using equation II since s and D can be obtained from the fitting analysis. [formula]
In the cases where the diffusion coefficient cannot be determined accurately, the molecular weight of a spherical protein can still be estimated by combining the Svedberg equation and Stokes equation for the frictional coefficient to obtain equation III which utilizes the estimated sedimentation coefficient: [formula]
Sedimentation velocity was also used to determine the amount of soluble Aβ and Aβ monomer in solution after sedimentation of Aβ aggregates. […] The percent of monomeric species in solution was calculated using equation IV at 50,000 rpm and after complete sedimentation of Aβ high MW oligomeric species. Sedimentation equilibrium studies of the unsedimented species were carried out to determine whether a monomer, dimer or a mixture was present in solution. % of unsedimented Aβ=1−(Absorbance(290 nm, 3000 rpm)−Absorbance(290 nm, 20,000-30,000 rpm))×100 (IV)

Aβ 1-40 [3] = biological target: T1, Aβ 1-40; test: Electron microscopy of Aβ aggregates in the presence of inhibitor; format: biochemical; set-up: Amyloid-β (Aβ 1-40) was purchased from California Peptides (Lot # SF104); purchased California Peptides Lot # SF104; details: for Protofibril assembly into fibrils when compound is added to pre-incubated Aβ (EM and sedimentation velocity): Aβ pre-incubated 18-20 hr at 37° C., then three to nine days with compound
Protocol: Electron Microscopy. Electron microscopy was used to follow the changes in size and structural morphology of Aβ aggregates in the presence and absence of inhibitor at 37° C. as a function of time. EM samples were prepared by placing 5 μL of the Aβ solution on a carbon-coated grid and allowing the solution to stand for 2 min before removing excess solution. The grid was then washed once with distilled water and once with 1% uranyl acetate before staining the sample with fresh 1% uranyl acetate for another 2 min. The samples were then studied in a Phillips CM-100 electron microscope. The grids were thoroughly examined to get an overall statistical evaluation of the structures present in the sample. All electron micrographs were taken at 100 kV.

Aβ 1-40 [4] = biological target: T1, Aβ 1-40; test: Thioflavin T (ThT) fluorescence assay for fibril formation; format: biochemical; set-up: Amyloid-β (Aβ 1-40) was purchased from California Peptides (Lot # SF104); purchased California Peptides Lot # SF104; details: for Thioflavin T signal after longer incubation: longer incubation at 37° C., some long fibrils formed; for Thioflavin T signal with sodium metabisulphite added: stock solutions containing 1% (v/v) sodium metabisulphite, 37° C., pH 7.4, 3 days
Protocol: Preparation of Stock Peptide Solutions for Fibrillization Studies. Stock solutions of the inhibitors were prepared by dissolving the compounds at a concentration of 5-7 mM in water or in 1-1.5% DMSO solutions (for compounds with reduced solubility). Amyloid-β (Aβ 1-40) was purchased from California Peptides (Lot # SF104). Aβ 1-40 stock solutions were prepared by dissolving purified and lyophilized peptide in cold double distilled water to yield stock solutions at a concentration of 2 mg/mL. The stock solutions were used within 10-30 minutes of dissolution. Samples for fibril formation assay were prepared by diluting the appropriate amount of Aβ stock with pH 7.4 Tris-HCl buffer (50 mM Tris, 150 mM NaCl) to afford a final peptide concentration of 100 μM. […] Analytical ultracentrifugation, and electron microscopy were periodically used to ensure that we start our experiments with a hydrodynamically defined Aβ monomer, and the absence of any preformed fibrils in solution.
Thioflavin T (ThT) Fluorescence Assay for Fibril Formation. Thioflavin T was purchased from Aldrich (70% purity) and was recrystallized from benzene/ethanol (1:1) to afford yellow crystals (36). Thioflavin T binding assays were performed by addition of 50 μL of 100 μM Aβ solutions, which were incubated at 37° C. in the absence and presence of inhibitors, to 450 μL solution of 10 μM Thioflavin T in phosphate buffer (10 mM phosphate, 100 mM KCl). The solutions were mixed and fluorescence measurements were recorded in Biosystems model spectrofluorimeter at 25° C. using a 1 cm path length quartz cell. An excitation slit width of 4 nm and an emission slit width of 8 nm were employed. The excitation wavelength was set to 450 nm and emission monitored from 460-630 nm. The relative fluorescence at 482 nm was plotted for each sample, and was used as a measure of the amount of fibrillar aggregates in solution.

[5] = Aβ coincubated with D030, 11 days at 37° C.

Compound | Effect on Aβ 1-40 fibril formation (ThT, sedimentation velocity, EM) (Aβ 1-40 [1]) | Amount of nonfibrillar assemblies (protofibrils) formed by Aβ alone relative to that obtained in the presence of compound (Aβ 1-40 [2]) [%] | Sedimentation velocities, 20 h (average sedimentation coefficient) (Aβ 1-40 [2]) [S] | Protofibril assembly into fibrils when compound is added to pre-incubated Aβ (EM and sedimentation velocity) (Aβ 1-40 [3]) | Thioflavin T signal after longer incubation (Aβ 1-40 [4]) | Thioflavin T signal with sodium metabisulphite added (Aβ 1-40 [4]) | also measured
COc1ccc2c(c1O)-c1c(OC)c(OC)cc3c1[C@H](C2)N(C)CC3.Cl [isocrydine, Isocrydine hydrochloride] | showed no effect | – | – | – | – | – | –
COc1ccc2c(c1O)-c1c3c(cc4c1[C@H](C2)N(C)CC4)OCO3 [bulbocapnine, Bulbocapnine hydrochloride] | showed no effect | – | – | – | – | – | –
CCCN1CCc2cccc3c2[C@H]1Cc1ccc(O)c(O)c1-3.Cl [D027, R(−)-Propylnorapomorphine hydrochloride] | – | ~30 | 33 | no fibril formation | did not exhibit any changes | restoration of the ThT signal | Inhibition of Aβ fibril formation by EM, aged or freshly prepared stock solutions (Aβ 1-40 [3]; three to four days at 37° C.): effective inhibition of Aβ fibril formation
COc1ccc2c(c1O)-c1cccc3c1[C@@H](C2)N(C)CC3.Cl [R(−)-apocodeine, R(−)-Apocodeine hydrochloride] | showed no effect | – | – | – | – | – | –
Br.Oc1ccc2c(c1O)-c1cccc3c1[C@@H](C2)NCC3 [D040, R(−)-Norapomorphine hydrobromide] | – | ~30 | 31 | exhibited similar behavior | did not exhibit any changes | restoration of the ThT signal | –
CCCN1CCc2cccc3c2[C@H]1Cc1ccc2c(c1-3)OCO2.Cl [M121, R(−)-10,11-Methylenedioxy-N-n-propylnoraporphine hydrochloride] | showed no effect | – | – | – | – | – | –
Br.CN1CCc2cc(O)cc3c2[C@H]1Cc1ccc(O)c(O)c1-3 [D030, R(−)-2,10,11-Trihydroxyaporphine hydrobromide] | – | ~30 | 33 | least effective compound towards inhibiting protofibril assembly into fibrils | did not exhibit any changes | restoration of the ThT signal | Incubation period during which nonfibrillar assemblies remain the dominant species (EM and sedimentation velocity) (Aβ 1-40 [3]; 37° C., incubation extended to nine days): 1 to 3 days; Structures seen by EM after 9 days (Aβ 1-40 [3]; Aβ 100 μM, pH 7.4, 9 days at 37° C.): accumulation of some long fibrils in solution; Structures seen by EM after 11 days (Aβ 1-40 [3]; [5]): significant amounts of fibrils in solution; Concentration at which Aβ 1-40 fibril formation is inhibited (Aβ 1-40 [1]; incubation period of three days): 100 µM; Thioflavin T signal after 11 days (Aβ 1-40 [4]; [5]): did not show a ThT signal
Br.CCCN1CCc2cc(O)cc3c2[C@H]1Cc1ccc(O)c(O)c1-3 [D029, R(−)-2,10,11-Trihydroxy-N-propylnorapomorphine hydrobromide] | – | ~30 | 35 | exhibited similar behavior | did not exhibit any changes | restoration of the ThT signal | –
